For this test, the system named is converting enzyme (enzyme for conversion of angiotensin I to angiotensin II). The test is described as follows: Inhibition of the converting enzyme (angiotensin I / angiotensin II pressor response) after oral administration to unanesthetized dogs. It counts as in vivo. The settings on record: 1 mg/kg. How it is done:
The compound of the invention for which E=H was tested by oral administration on unanesthetized dogs. The arterial blood pressure of the dogs was measured with a pressure gauge ("Statham P23 Db") after catheterization of the aorta via the femoral artery. The recording is carried out with a recording apparatus ("Brush 400"). Angiotensin I and angiotensin II are injected into the animals intravenously at doses of 0.5 and 0.10 γ/kg, respectively. A dose/activity curve is established for each of these hormones. The compound according to the invention for which E=H is then administered orally at a dose of 1 mg/kg. A second dose/activity curve is then established for angiotensin I and for angiotensin II after administration of the test product.

For the compound `Cl.NCCCC[C@H](N[C@@H](CCc1ccccc1)C(=O)O)C(=O)N1C2CCC(CC2)[C@H]1C(=O)O` [compound of the invention for which E=H, (3S)-2-{(S)-N-[(S)-1-carboxy-3-phenylpropyl]lysyl}-3-carboxy-2-azabicyclo[2.2.2]octane hydrochloride], the “percentage inhibition of the converting enzyme” value (“percentage inhibition” for short) (15 minutes after administration) was 80%, the “percentage inhibition” value (30 minutes after administration) is recorded as roughly 100% and the “percentage inhibition” value (6 hours after administration) is “greater than 70%”.

The values above are taken from US4959372A, “Anti-hypertensive substituted 2-azabicyclooctane-3-carboxylic acids” (Adir et lie, priority 1987, dated 1990).
